In patent publication US10772893B2, “2-(morpholin-4-yl)-1,7-naphthyridines” (BAYER PHARMA AKTIENGESELLSCHAFT, priority 2014, dated 2020) one finds IC50 data, which are given here for 26 compounds.

The test concerns HeLa cells. The test is described as follows: Proliferation assay, crystal violet staining. Conditions: Homo sapiens, 96 h.
The mark [1] stands for this setting: read-out: Inhibition of HeLa cell proliferation, HeLa cells, 4 days incubation.

Like-named read-outs stand apart in the source and are kept apart here.

Procedure: After 24 hours, the cells of one plate (zero plate) were dyed with crystal violet (see below), whereas the medium of the other plates was replaced with fresh culture medium (200 μl) to which the test substances were added in various concentrations (0 μM, and also in the range of 0.001-10 μM; the final concentration of the solvent dimethyl sulphoxide was 0.1 or 0.5%). The cells were incubated for 4 days in the presence of the test substances. […] After washing the fixed cells three times with water, the plates were dried at room temperature. The cells were stained by adding 100 μl/measurement point of a 0.1% strength crystal violet solution (pH adjusted to pH 3 by adding acetic acid). After washing the cells three times with water, the plates were dried at room temperature. The dye was dissolved by adding 100 μl/measurement point of a 10% strength acetic acid solution. […] The percentage change in cell growth was calculated by normalizing the measured values to the absorbance values of the zero plate (=0%) and the absorbance of the untreated (0 W) cells (=100%). The IC50 values were determined by means of a four parameter fit.

In the case of `C[C@@H]1CN[C@@H](C)CN1c1cc(N2CCOCC2)nc2c(-c3ccn[nH]3)nccc12` (relative stereo) [Example 178, 4-[(trans)-2,5-dimethylpiperazin-1-yl]-2-(morpholin-4-yl)-8-(1H-pyrazol-5-yl)-1,7-naphthyridine], the IC50 under setting [1] was > 3000 nM.
Same read-out and setting: in the case of `CS(=O)(=O)c1ccc(-c2cc(N3CCOCC3)nc3c(-c4ccn[nH]4)nccc23)cn1` [Example 3, 4-[6-(methylsulfonyl)pyridin-3-yl]-2-(morpholin-4-yl)-8-(1H-pyrazol-5-yl)-1,7-naphthyridine] it was 2770 nM.
Same read-out and setting: in the case of `Cc1cc(S(C)(=O)=O)ncc1-c1cc(N2CCOCC2)nc2c(-c3ccn[nH]3)nccc12` [Example 6, 4-[4-methyl-6-(methylsulfonyl)pyridin-3-yl]-2-(morpholin-4-yl)-8-(1H-pyrazol-5-yl)-1,7-naphthyridine] it was 1490 nM.
For `COP(=O)(OC)c1ccc(-c2cc(N3CCOCC3)nc3c(-c4ccn[nH]4)nccc23)cc1` [Example 9, dimethyl {4-[2-(morpholin-4-yl)-8-(1H-pyrazol-5-yl)-1,7-naphthyridin-4-yl]phenyl}phosphonate], under “read-out: Inhibition of HeLa cell proliferation”, the IC50 came out at 1010 nM.
For the compound `CN1CC=C(c2cc(N3CCOCC3)nc3c(-c4ccn[nH]4)nccc23)CC1` [Example 14, 4-(1-methyl-1,2,3,6-tetrahydropyridin-4-yl)-2-(morpholin-4-yl)-8-(1H-pyrazol-5-yl)-1,7-naphthyridine], the IC50 under setting [1] is 1990 nM.
Still for that read-out and setting: to `C[C@@H]1COCCN1c1cc(-c2ccccc2)c2ccnc(-c3cc[nH]n3)c2n1` [Example 27, 2-((R)-3-methylmorpholin-4-yl)-4-phenyl-8-(2H-pyrazol-3-yl)-[1,7]naphthyridine] belongs 355 nM.
The same measure, in the same setting: to `C[C@@H]1COCCN1c1cc(-c2cccc(S(C)(=O)=O)c2)c2ccnc(-c3cc[nH]n3)c2n1` [Example 28, 4-(3-methanesulphonylphenyl)-2-((R)-3-methylmorpholin-4-yl)-8-(2H-pyrazol-3-yl)-[1,7]naphthyridine] belongs 316 nM.
Same read-out and setting: to `CS(=O)(=O)Cc1cc(N2CCOCC2)nc2c(-c3ccn[nH]3)nccc12` [Example 37, 4-methanesulphonylmethyl-2-morpholin-4-yl-8-(2H-pyrazol-3-yl)-[1,7]naphthyridine] belongs 5080 nM; to `CCOc1cc(N2CCOCC2)nc2c(-c3cc[nH]n3)nccc12` [Example 43, 4-ethoxy-2-(morpholin-4-yl)-8-(1H-pyrazol-3-yl)-[1,7]naphthyridine], 3880 nM.
As to `c1ccc(COc2cc(N3CCOCC3)nc3c(-c4cc[nH]n4)nccc23)cc1` [Example 50, 4-benzyloxy-2-(morpholin-4-yl)-8-(1H-pyrazol-3-yl)-[1,7]naphthyridine], the IC50 under setting [1] was > 10000 nM.
In the case of `COc1cc(N2CCOC[C@H]2C)nc2c(-c3cc[nH]n3)nccc12` [Example 53, 4-methoxy-2-((R)-3-methylmorpholin-4-yl)-8-(1H-pyrazol-3-yl)-[1,7]naphthyridine], the IC50 under setting [1] came to 1410 nM.
`CCn1nccc1-c1cc(N2CCOC[C@H]2C)nc2c(-c3ccn[nH]3)nccc12` [Example 69, 4-(1-ethyl-1H-pyrazol-5-yl)-2-[(3R)-3-methylmorpholin-4-yl]-8-(1H-pyrazol-5-yl)-1,7-naphthyridine]: under setting [1], the IC50 came to 191 nM.
Take `C[C@@H]1COCCN1c1cc(-c2cncn2C)c2ccnc(-c3ccn[nH]3)c2n1` [Example 70, 4-(1-methyl-1H-imidazol-5-yl)-2-[(3R)-3-methylmorpholin-4-yl]-8-(1H-pyrazol-5-yl)-1,7-naphthyridine]: under setting [1], the IC50 is 201 nM.
The same measure, in the same setting: in the case of `C[C@@H]1COCCN1c1cc(-c2ccccc2N)c2ccnc(-c3ccn[nH]3)c2n1` [Example 71, 2-{2-[(3R)-3-methylmorpholin-4-yl]-8-(1H-pyrazol-5-yl)-1,7-naphthyridin-4-yl]aniline] it was 167 nM.
Still for that read-out and setting: in the case of `C[C@@H]1COCCN1c1cc(-c2cccc(F)c2F)c2ccnc(-c3ccn[nH]3)c2n1` [Example 72, 4-(2,3-difluorophenyl)-2-[(3R)-3-methylmorpholin-4-yl]-8-(1H-pyrazol-5-yl)-1,7-naphthyridine] it was 200 nM.
Regarding `C[C@@H]1COCCN1c1cc(-c2cc(F)ccc2N)c2ccnc(-c3ccn[nH]3)c2n1` [Example 75, 4-fluoro-2-[2-[(3R)-3-methylmorpholin-4-yl]-8-(1H-pyrazol-5-yl)-1,7-naphthyridin-4-yl]aniline], the IC50 under setting [1] was 271 nM.
With `C[C@@H]1COCCN1c1cc(-c2cncn2Cc2ccccc2)c2ccnc(-c3ccn[nH]3)c2n1` [Example 76, 4-(1-benzyl-1H-imidazol-5-yl)-2-[(3R)-3-methylmorpholin-4-yl]-8-(1H-pyrazol-5-yl)-1,7-naphthyridine], under setting [1], the IC50 stood at 968 nM.
On the same count and under the same terms, in the case of `C[C@@H]1COCCN1c1cc(-c2ccccc2F)c2ccnc(-c3ccn[nH]3)c2n1` [Example 77, 4-(2-fluorophenyl)-2-[(3R)-3-methylmorpholin-4-yl]-8-(1H-pyrazol-5-yl)-1,7-naphthyridine] it was 254 nM.
The same measure, in the same setting: to `Cc1ncc(-c2cc(N3CCOC[C@H]3C)nc3c(-c4ccn[nH]4)nccc23)s1` [Example 78, 2-[(3R)-3-methylmorpholin-4-yl]-4-(2-methyl-1,3-thiazol-5-yl)-8-(1H-pyrazol-5-yl)-1,7-naphthyridine] belongs 655 nM.
The same measure, in the same setting: in the case of `C[C@@H]1COCCN1c1cc(-c2ccnn2C2CC2)c2ccnc(-c3ccn[nH]3)c2n1` [Example 80, 4-(1-cyclopropyl-1H-pyrazol-5-yl)-2-[(3R)-3-methylmorpholin-4-yl]-8-(1H-pyrazol-5-yl)-1,7-naphthyridine] it was 187 nM.
For the compound `C[C@@H]1COCCN1c1cc(-c2ccc(N3CCNCC3)cc2F)c2ccnc(-c3ccn[nH]3)c2n1` [Example 81, 4-[2-fluoro-4-(piperazin-1-yl)phenyl]-2-[(3R)-3-methylmorpholin-4-yl]-8-(1H-pyrazol-5-yl)-1,7-naphthyridine], the IC50 under setting [1] was found to be 245 nM.
The same measure, in the same setting: in the case of `C[C@@H]1COCCN1c1cc(N2CCN(S(C)(=O)=O)CC2)c2ccnc(-c3ccn[nH]3)c2n1` [Example 82, 2-[(3R)-3-methylmorpholin-4-yl]-4-[4-(methylsulfonyl)piperazin-1-yl]-8-(1H-pyrazol-5-yl)-1,7-naphthyridine] it was 529 nM; in that of `C[C@@H]1COCCN1c1cc(N(C)CC(C)(C)C)c2ccnc(-c3ccn[nH]3)c2n1` [Example 83, N-(2,2-dimethylpropyl)-N-methyl-2-[(3R)-3-methylmorpholin-4-yl]-8-(1H-pyrazol-5-yl)-1,7-naphthyridin-4-amine], 331 nM.
For `C[C@@H]1COCCN1c1cc(N2CCC(CO)CC2)c2ccnc(-c3ccn[nH]3)c2n1` [Example 84, (1-{2-[(3R)-3-methylmorpholin-4-yl]-8-(1H-pyrazol-5-yl)-1,7-naphthyridin-4-yl}piperidin-4-yl)methanol], under setting [1], the IC50 was determined as 130 nM.
On the same count and under the same terms, to `C[C@@H]1COCCN1c1cc(N(C)C2CC2)c2ccnc(-c3ccn[nH]3)c2n1` [Example 85, N-cyclopropyl-N-methyl-2-[(3R)-3-methylmorpholin-4-yl]-8-(1H-pyrazol-5-yl)-1,7-naphthyridin-4-amine] belongs 438 nM; to `C[C@@H]1COCCN1c1cc(N(C)c2ccc(F)cc2)c2ccnc(-c3ccn[nH]3)c2n1` [Example 87, N-(4-fluorophenyl)-N-methyl-2-[(3R)-3-methylmorpholin-4-yl]-8-(1H-pyrazol-5-yl)-1,7-naphthyridin-4-amine], 543 nM.
